ChEMBL document CHEMBL2203234, “Optimisation of imidazole compounds as selective TAAR1 agonists: discovery of RO5073012” (Bioorg Med Chem Lett, 2012)

Experiments:
[1] = target: Histamine H1 receptor (Homo sapiens) (UniProt P35367); assay: Inhibition of human H1 receptor at 10 uM by CEREP assay
[2] = target: Histamine H3 receptor (Homo sapiens) (UniProt Q9Y5N1); assay: Inhibition of human H3 receptor at 10 uM by CEREP assay
[3] = target: Muscarinic acetylcholine receptor M3 (Homo sapiens) (UniProt P20309); assay: Inhibition of human M3 receptor at 10 uM by CEREP assay
Chain of Muscarinic acetylcholine receptor M3 (Homo sapiens) (P20309 whole entry, looked up): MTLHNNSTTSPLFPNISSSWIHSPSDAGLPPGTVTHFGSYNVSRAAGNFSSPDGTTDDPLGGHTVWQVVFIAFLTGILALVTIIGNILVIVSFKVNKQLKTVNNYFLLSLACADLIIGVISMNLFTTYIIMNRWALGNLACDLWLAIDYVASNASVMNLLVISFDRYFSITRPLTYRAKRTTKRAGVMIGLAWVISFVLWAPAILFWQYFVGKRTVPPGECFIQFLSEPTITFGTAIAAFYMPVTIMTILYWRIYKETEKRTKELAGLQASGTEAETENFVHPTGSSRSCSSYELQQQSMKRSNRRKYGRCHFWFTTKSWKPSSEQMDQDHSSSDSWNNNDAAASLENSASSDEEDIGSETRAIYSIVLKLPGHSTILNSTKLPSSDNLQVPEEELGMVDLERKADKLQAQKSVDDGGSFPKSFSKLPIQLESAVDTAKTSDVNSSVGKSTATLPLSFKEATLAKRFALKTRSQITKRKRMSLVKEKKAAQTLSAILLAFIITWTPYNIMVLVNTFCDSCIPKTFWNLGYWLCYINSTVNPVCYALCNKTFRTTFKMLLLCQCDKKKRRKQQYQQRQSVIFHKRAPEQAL

[4] = target: Muscarinic acetylcholine receptor M4 (Homo sapiens) (UniProt P08173); assay: Inhibition of human M4 receptor at 10 uM by CEREP assay
[5] = target: Substance-P receptor (Homo sapiens) (UniProt P25103); assay: Inhibition of human Nk1 receptor at 10 uM by CEREP assay
[6] = target: Substance-K receptor (Homo sapiens) (UniProt P21452); assay: Inhibition of human Nk2 receptor at 10 uM by CEREP assay
[7] = target: Neuronal acetylcholine receptor; alpha4/beta2 (Homo sapiens) (UniProt P17787+P43681); assay: Inhibition of neuronal alpha4beta2 nAChR at 10 uM by CEREP assay; assay type: protein-complex assay
[8] = target: Kappa-type opioid receptor (Homo sapiens) (UniProt P41145); assay: Inhibition of KOP receptor at 10 uM by CEREP assay
[9] = target: Mu-type opioid receptor (Homo sapiens) (UniProt P35372); assay: Inhibition of human MOP receptor at 10 uM by CEREP assay
[10] = Inhibition of NMDA receptor PCP site at 10 uM by CEREP assay
[11] = target: 5-hydroxytryptamine receptor 1A (Homo sapiens) (UniProt P08908); assay: Inhibition of human 5-HT1A receptor at 10 uM by CEREP assay
[12] = target: 5-hydroxytryptamine receptor 1D (Homo sapiens) (UniProt P28221); assay: Inhibition of 5-HT1D receptor at 10 uM by CEREP assay
[13] = target: 5-hydroxytryptamine receptor 5A (Homo sapiens) (UniProt P47898); assay: Inhibition of human 5-HT5A receptor at 10 uM by CEREP assay
[14] = Inhibition of sst receptor at 10 uM by CEREP assay
[15] = target: Thyrotropin-releasing hormone receptor (Homo sapiens) (UniProt P34981); assay: Inhibition of TRH receptor at 10 uM by CEREP assay
[16] = Inhibition of L-type Ca2+ channel verapamil site at 10 uM by CEREP assay
[17] = Inhibition of K-ATP channel at 10 uM by CEREP assay
[18] = Inhibition of K+v channel at 10 uM by CEREP assay
[19] = Inhibition of Na+ channel site 2 at 10 uM by CEREP assay
[20] = Inhibition of Cl- channel at 10 uM by CEREP assay
[21] = target: Sodium-dependent noradrenaline transporter (Homo sapiens) (UniProt P23975); assay: Inhibition of human NE transporter at 10 uM by CEREP assay
[22] = species on record: Homo sapiens; assay: Inhibition of human Choline transporter at 10 uM by CEREP assay
[23] = target: cGMP-dependent 3',5'-cyclic phosphodiesterase (Homo sapiens) (UniProt O00408); assay: Inhibition of human PDE2 at 10 uM by CEREP assay
Chain of cGMP-dependent 3',5'-cyclic phosphodiesterase (Homo sapiens) (O00408 whole entry): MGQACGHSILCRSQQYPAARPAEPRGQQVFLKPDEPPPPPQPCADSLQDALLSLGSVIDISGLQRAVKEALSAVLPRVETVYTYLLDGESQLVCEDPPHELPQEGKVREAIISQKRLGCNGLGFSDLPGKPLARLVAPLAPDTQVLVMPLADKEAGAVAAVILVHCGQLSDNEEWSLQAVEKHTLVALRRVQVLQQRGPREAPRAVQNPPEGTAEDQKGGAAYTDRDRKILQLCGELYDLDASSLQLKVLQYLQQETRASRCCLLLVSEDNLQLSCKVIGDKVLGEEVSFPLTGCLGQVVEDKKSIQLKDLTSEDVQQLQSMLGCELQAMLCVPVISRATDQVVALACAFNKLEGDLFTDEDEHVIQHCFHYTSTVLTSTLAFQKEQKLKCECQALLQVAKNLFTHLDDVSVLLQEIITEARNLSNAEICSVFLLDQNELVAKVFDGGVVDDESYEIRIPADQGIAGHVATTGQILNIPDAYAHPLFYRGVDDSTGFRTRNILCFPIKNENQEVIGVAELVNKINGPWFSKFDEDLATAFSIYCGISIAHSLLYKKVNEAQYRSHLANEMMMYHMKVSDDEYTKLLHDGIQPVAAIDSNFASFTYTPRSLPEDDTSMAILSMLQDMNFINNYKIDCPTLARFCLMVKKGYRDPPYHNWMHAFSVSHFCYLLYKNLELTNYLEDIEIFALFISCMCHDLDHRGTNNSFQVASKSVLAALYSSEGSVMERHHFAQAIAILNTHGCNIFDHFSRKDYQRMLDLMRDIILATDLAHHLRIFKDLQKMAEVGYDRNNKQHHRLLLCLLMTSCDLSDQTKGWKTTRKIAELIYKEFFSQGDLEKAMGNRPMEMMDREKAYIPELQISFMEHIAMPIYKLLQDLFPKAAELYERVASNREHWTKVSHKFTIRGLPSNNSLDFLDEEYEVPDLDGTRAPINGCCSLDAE

[24] = target: Phosphodiesterase 3 (Homo sapiens) (UniProt Q14432+Q13370); assay: Inhibition of human PDE3 at 10 uM by CEREP assay; assay type: protein assay
[25] = target: Phosphodiesterase 4 (Homo sapiens) (UniProt P27815+Q08499+Q07343+Q08493); assay: Inhibition of human PDE4 at 10 uM by CEREP assay; assay type: protein assay
[26] = target: Acetylcholinesterase (Homo sapiens) (UniProt P22303); assay: Inhibition of human Acetylcholinesterase at 10 uM by CEREP assay
Chain of Acetylcholinesterase (Homo sapiens) (P22303 whole entry): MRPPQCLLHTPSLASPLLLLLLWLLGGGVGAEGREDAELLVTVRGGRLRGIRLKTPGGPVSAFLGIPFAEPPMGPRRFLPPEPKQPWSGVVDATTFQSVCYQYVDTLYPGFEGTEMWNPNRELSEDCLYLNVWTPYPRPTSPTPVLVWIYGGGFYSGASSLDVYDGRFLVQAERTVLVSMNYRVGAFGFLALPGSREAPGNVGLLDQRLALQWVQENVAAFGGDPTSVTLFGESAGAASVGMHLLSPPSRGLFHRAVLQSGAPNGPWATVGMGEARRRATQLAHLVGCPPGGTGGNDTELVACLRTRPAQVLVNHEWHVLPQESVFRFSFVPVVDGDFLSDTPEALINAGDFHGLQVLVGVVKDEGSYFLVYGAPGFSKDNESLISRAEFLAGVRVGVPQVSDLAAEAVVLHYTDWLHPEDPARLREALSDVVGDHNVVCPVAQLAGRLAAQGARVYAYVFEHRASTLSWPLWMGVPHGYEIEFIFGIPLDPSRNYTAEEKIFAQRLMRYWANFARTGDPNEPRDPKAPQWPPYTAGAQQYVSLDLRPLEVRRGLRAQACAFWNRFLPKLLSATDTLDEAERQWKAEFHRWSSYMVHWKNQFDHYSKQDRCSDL

[27] = target: Catechol O-methyltransferase (Homo sapiens) (UniProt P21964); assay: Inhibition of COMT at 10 uM by CEREP assay
[28] = target: MAO-B (amine oxidase [flavin-containing] B) (Homo sapiens, UniProt P27338); assay: Inhibition of human MAO-B at 10 uM by CEREP assay
Chain of MAO-B (amine oxidase [flavin-containing] B) (P27338 whole entry): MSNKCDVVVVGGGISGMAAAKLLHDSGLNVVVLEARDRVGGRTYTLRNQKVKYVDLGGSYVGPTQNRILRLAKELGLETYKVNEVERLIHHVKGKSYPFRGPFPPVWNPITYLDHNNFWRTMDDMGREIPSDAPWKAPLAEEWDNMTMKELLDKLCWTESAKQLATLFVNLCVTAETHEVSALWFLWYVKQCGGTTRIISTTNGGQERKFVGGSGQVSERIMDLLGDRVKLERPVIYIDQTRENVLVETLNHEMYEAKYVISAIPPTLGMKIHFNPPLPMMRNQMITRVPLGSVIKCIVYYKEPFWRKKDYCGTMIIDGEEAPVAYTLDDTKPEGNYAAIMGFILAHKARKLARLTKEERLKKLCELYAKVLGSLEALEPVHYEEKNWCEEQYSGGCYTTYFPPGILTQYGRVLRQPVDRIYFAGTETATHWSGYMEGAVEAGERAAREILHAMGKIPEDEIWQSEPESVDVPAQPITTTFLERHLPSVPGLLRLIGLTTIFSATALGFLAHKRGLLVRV

[29] = Inhibition of Guanylyl cyclase at 10 uM by CEREP assay
[30] = Inhibition of human I1 receptor by CEREP assay
[31] = target: 5-hydroxytryptamine receptor 1A (Homo sapiens, UniProt P08908); assay: Inhibition of human 5-HT1A receptor by CEREP assay
[32] = target: T1, Trace amine-associated receptor 1 (Homo sapiens, UniProt Q96RJ0); assay: Displacement of (S)-4-(2,4-difluorophenyl-3-tritio) -4,5-dihydro-2-oxazolamine from human TAAR1 receptor expressed in HEK293 cells after 90 mins by beta counting analysis; assay type: cell-based
T1 sequence (Q96RJ0 whole entry): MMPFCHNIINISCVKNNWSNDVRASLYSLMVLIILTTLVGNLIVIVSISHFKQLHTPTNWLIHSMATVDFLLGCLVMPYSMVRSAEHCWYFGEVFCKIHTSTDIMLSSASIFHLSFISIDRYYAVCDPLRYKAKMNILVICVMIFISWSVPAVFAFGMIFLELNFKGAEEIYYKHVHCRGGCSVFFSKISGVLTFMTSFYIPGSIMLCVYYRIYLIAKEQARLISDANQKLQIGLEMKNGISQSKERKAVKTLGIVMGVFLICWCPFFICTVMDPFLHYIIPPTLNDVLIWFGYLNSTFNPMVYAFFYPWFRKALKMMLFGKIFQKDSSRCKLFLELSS

[33] = target: Glucagon receptor (Homo sapiens) (UniProt P47871); assay: Inhibition of human glucagon receptor at 10 uM by CEREP assay
[34] = species on record: Homo sapiens; assay: Inhibition of human AMPA receptor at 10 uM by CEREP assay
[35] = target: D(4) dopamine receptor (Homo sapiens) (UniProt P21917); assay: Inhibition of human D4.4 receptor at 10 uM by CEREP assay
Chain of D(4) dopamine receptor (Homo sapiens) (P21917 whole entry): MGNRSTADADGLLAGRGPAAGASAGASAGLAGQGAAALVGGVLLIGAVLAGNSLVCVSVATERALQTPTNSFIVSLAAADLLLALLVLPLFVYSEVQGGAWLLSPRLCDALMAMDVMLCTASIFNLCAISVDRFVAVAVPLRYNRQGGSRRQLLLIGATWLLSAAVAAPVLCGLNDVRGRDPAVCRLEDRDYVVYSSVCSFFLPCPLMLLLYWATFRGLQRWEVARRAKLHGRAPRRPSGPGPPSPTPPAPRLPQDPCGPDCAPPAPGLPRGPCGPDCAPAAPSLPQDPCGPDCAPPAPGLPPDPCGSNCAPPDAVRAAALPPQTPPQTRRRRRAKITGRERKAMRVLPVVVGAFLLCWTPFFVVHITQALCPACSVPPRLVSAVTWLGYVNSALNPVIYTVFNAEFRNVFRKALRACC

[36] = target: D(1A) dopamine receptor (Homo sapiens) (UniProt P21728); assay: Inhibition of human D1 receptor at 10 uM by CEREP assay
Chain of D(1A) dopamine receptor (Homo sapiens) (P21728 whole entry): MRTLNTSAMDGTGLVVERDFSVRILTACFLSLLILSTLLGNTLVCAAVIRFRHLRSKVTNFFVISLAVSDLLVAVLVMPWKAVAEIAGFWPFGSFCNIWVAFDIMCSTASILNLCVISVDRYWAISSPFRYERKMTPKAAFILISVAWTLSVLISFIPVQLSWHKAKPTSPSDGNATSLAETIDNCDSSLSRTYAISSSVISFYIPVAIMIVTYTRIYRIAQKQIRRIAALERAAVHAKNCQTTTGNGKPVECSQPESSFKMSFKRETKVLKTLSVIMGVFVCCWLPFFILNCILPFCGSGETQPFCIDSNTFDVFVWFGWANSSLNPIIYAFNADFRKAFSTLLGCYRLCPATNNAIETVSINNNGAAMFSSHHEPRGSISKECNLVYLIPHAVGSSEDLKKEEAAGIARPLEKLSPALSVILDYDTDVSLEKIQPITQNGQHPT

[37] = target: C5a anaphylatoxin chemotactic receptor 1 (Homo sapiens) (UniProt P21730); assay: Inhibition of human C5a receptor at 10 uM by CEREP assay
[38] = target: Corticotropin-releasing factor receptor 1 (Homo sapiens) (UniProt P34998); assay: Inhibition of human CRF1 receptor at 10 uM by CEREP assay
Chain of Corticotropin-releasing factor receptor 1 (Homo sapiens) (P34998 whole entry): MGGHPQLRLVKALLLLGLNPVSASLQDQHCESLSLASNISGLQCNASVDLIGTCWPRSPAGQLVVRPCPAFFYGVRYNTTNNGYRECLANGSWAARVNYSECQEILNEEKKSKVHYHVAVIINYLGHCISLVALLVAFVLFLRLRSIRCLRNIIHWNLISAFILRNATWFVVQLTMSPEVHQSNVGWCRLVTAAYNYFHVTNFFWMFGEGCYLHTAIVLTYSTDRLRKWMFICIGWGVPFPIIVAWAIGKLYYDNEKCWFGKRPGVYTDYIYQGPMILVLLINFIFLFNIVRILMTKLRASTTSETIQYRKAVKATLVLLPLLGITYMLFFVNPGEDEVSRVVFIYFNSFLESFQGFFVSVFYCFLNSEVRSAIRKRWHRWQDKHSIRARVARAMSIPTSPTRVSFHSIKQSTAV

[39] = target: Cannabinoid receptor 2 (Homo sapiens) (UniProt P34972); assay: Inhibition of human CB2 receptor at 10 uM by CEREP assay
Chain of Cannabinoid receptor 2 (Homo sapiens) (P34972 whole entry): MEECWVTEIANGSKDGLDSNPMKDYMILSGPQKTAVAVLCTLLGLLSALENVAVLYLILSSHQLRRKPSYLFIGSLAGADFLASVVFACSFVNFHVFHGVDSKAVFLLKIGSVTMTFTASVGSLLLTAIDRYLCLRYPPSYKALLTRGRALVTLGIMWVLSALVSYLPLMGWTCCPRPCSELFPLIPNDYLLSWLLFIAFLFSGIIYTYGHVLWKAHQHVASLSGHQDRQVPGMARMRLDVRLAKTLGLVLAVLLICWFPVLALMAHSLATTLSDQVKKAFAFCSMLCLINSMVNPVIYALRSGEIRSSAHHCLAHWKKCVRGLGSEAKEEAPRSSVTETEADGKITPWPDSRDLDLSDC

[40] = Inhibition of central BZD receptor at 10 uM by CEREP assay
[41] = Inhibition of alpha 1 adrenergic receptor at 10 uM by CEREP assay

Chain of Histamine H3 receptor (Homo sapiens) (Q9Y5N1 whole entry): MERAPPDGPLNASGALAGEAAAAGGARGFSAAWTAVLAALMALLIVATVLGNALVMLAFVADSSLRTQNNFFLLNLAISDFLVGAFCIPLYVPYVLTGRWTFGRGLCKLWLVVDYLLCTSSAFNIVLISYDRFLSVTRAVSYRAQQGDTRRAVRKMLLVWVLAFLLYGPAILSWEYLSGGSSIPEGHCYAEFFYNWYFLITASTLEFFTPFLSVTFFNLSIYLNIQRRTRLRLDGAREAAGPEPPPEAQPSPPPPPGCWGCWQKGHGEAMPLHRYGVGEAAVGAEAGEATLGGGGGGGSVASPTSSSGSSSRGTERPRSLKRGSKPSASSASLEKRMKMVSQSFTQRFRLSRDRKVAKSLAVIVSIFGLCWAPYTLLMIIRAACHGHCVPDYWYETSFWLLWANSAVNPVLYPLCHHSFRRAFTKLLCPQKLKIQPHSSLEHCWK

SMILES: CCc1cccc(CC)c1Cc1ncc[nH]1
- inhibition [1]: 1%
- inhibition [2]: 6%
- inhibition [3]: 25%
- inhibition [4]: 31%
- inhibition [5]: 5%
- inhibition [6]: 3%
- inhibition [7]: 7%
- inhibition [8]: 19%
- inhibition [9]: 8%
- inhibition [10]: 45%
- inhibition [11]: 96%
- inhibition [12]: 19%
- inhibition [13]: 20%
- inhibition [14]: -6%
- inhibition [15]: 0%
- inhibition [16]: 10%
- inhibition [17]: 7%
- inhibition [18]: -1%
- inhibition [19]: 22%
- inhibition [20]: 3%
- inhibition [21]: -1%
- inhibition [22]: 23%
- inhibition [23]: -5%
- inhibition [24]: -5%
- inhibition [25]: -2%
- inhibition [26]: 17%
- inhibition [27]: 3%
- inhibition at 10 µM [28]: 0%
- inhibition [29]: 1%
- Ki [30]: 660 nM
- Ki [31]: 1300 nM
- Ki [32]: 24 nM
- inhibition [33]: -5%
- inhibition [34]: 11%
- inhibition [35]: -3%
- inhibition [36]: 8%
- inhibition [37]: -8%
- inhibition [38]: -4%
- inhibition [39]: -4%
- inhibition [40]: 19%
- inhibition [41]: 23%
